Patent publication US7759345B2, “Antitumoral derivatives of ET-743” (priority 2001, dated 2010)

How the values were obtained:
K-562 = assay: Inhibition of cells growth by colorimetric assay (SRB), K-562; format: cell-based; details: SRB, 48 hours exposure
Procedure, shortened: (§1)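 Human cancer and endothelial lines are seeded at 5×10^3 cells per well and, after 18 h, treated for 48 h with compound dissolved in DMSO/EtOH/PBS (0.5:0.5:99) at 10 to 10^−8 μg/ml. Cell mass is quantified by SRB staining (OD 490 nm), and growth inhibition, total growth inhibition and cell kill are calculated from triplicate wells.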

A-549 = assay: Inhibition of cells growth by colorimetric assay (SRB), A-549; format: cell-based; details: SRB, 48 hours exposure
Procedure, shortened: as §1

SK-MEL-28 = assay: Inhibition of cells growth by colorimetric assay (SRB), SK-MEL-28; format: cell-based; details: SRB, 48 hours exposure
Procedure, shortened: as §1

HT-29 = assay: Inhibition of cells growth by colorimetric assay (SRB), HT-29; format: cell-based; details: SRB, 48 hours exposure
Procedure, shortened: as §1

LoVo = assay: Inhibition of cells growth by colorimetric assay (SRB), LoVo; format: cell-based; details: SRB, 48 hours exposure
Procedure, shortened: as §1

LoVo-Dox = assay: Inhibition of cells growth by colorimetric assay (SRB), LoVo-Dox; format: cell-based; details: SRB, 48 hours exposure
Procedure, shortened: as §1

DU-145 = assay: Inhibition of cells growth by colorimetric assay (SRB), DU-145; format: cell-based; details: SRB, 48 hours exposure
Procedure, shortened: as §1

LNCaP = assay: Inhibition of cells growth by colorimetric assay (SRB), LNCaP; format: cell-based; details: SRB, 48 hours exposure
Procedure, shortened: as §1

SK-BR-3 = assay: Inhibition of cells growth by colorimetric assay (SRB), SK-BR-3; format: cell-based; details: SRB, 48 hours exposure
Procedure, shortened: as §1

IGROV-1 = assay: Inhibition of cells growth by colorimetric assay (SRB), IGROV-1; format: cell-based; details: SRB, 48 hours exposure
Procedure, shortened: as §1

IGROV-ET = assay: Inhibition of cells growth by colorimetric assay (SRB), IGROV-ET; format: cell-based; details: SRB, 48 hours exposure
Procedure, shortened: as §1

SK-OV-3 = assay: Inhibition of cells growth by colorimetric assay (SRB), SK-OV-3; format: cell-based; details: SRB, 48 hours exposure
Procedure, shortened: as §1

PANC-1 = assay: Inhibition of cells growth by colorimetric assay (SRB), PANC-1; format: cell-based; details: SRB, 48 hours exposure
Procedure, shortened: as §1

HMEC1 = assay: Inhibition of cells growth by colorimetric assay (SRB), HMEC1; format: cell-based; details: SRB, 48 hours exposure
Procedure, shortened: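 Sulforhodamine B protein-stain readout (490 nm) after 48 h drug exposure, with GI, TGI and LC parameters calculated from triplicate means. Cells seeded at 5×10^3 per well, allowed 18 h drug-free attachment; dose range 10 to 10^−8 μg/ml, vehicle DMSO/EtOH/PBS (0.5:0.5:99).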

Excerpt for Heart: (§2) Toxicity was asssessed by the methods reported in Toxicology in Vitro, 15 (2001) 571-577, J. Luber Narod et al.: “Evaluation of the use of in vitro methodolodies as tools for screening new compounds for potential in vivo toxicity”.
Excerpt for Kidney: as §2
Excerpt for Liver: as §2
Excerpt for Myelo: as §2
Excerpt for Skeletal: as §2

In the case of `COc1cc2c(cc1OC)[C@@]1(CS[C@@H]3c4c(OC(C)=O)c(C)c5c(c4[C@H](COC1=O)N1C3[C@H]3c4c(cc(C)c(OC)c4OC)C[C@@H]([C@@H]1O)N3C)OCO5)NCC2` (some centres unmarked) [Compound 87], the GI50 (K-562; Homo sapiens, K562, 48 h, K-562, read-out: K-562 GI50) is reported as 0.000871 µM, the LC50 (50% cell killing) (K-562; Homo sapiens, K562, 48 h, read-out: K-562 LC50, K-562) is reported as 0.00715 µM and the “K-562 TGI” value (K-562; K-562) is reported as 2.96E-09. For the same compound, the “TGI A-549” value (A-549; A-549) was 4.77E-08, the GI50 (A-549; Homo sapiens, A549, 48 h, A-549, read-out: GI50 A-549) was 0.0238 µM and the LC50 (concentration for 50% cell killing) (A-549; Homo sapiens, A549, 48 h, read-out: A-549 LC50, A-549) was 0.0958 µM. The GI50 (SK-MEL-28; Homo sapiens, SK-MEL-28, 48 h, MEL-28, read-out: MEL-28 GI50) was 0.0192 µM, the CC50 (SK-MEL-28; Homo sapiens, SK-MEL-28, 48 h, read-out: MEL-28 LC50, MEL-28) was 0.109 µM and the “MEL-28 TGI” value (SK-MEL-28; MEL-28) was 4.57E-08. The “HT-29 TGI” value (HT-29; HT-29) was 1.12E-07, the GI50 (HT-29; Homo sapiens, HT-29, 48 h, HT-29, read-out: HT-29 GI50) was 0.0244 µM and the LC50 (concentration for 50% cell killing) (HT-29; Homo sapiens, HT-29, 48 h, read-out: HT-29 LC50, HT-29) was 0.38 µM. For the same compound, the GI50 (LoVo; Homo sapiens, LoVo, 48 h, LOVO, read-out: LOVO GI50) was 0.0227 µM, the LC50 (concentration for 50% cell killing) (LoVo; Homo sapiens, LoVo, 48 h, read-out: LOVO LC50, LOVO) was 0.123 µM and the “LOVO TGI” value (LoVo; LOVO) was 5.27E-08. The GI50 (LoVo-Dox; Homo sapiens, 48 h, LOVO-DOX, read-out: LOVO-DOX GI50) was 0.0387 µM, the CC50 (LoVo-Dox; Homo sapiens, 48 h, read-out: LOVO-DOX LC50, LOVO-DOX) was 12.7 µM and the “LOVO-DOX TGI” value (LoVo-Dox; LOVO-DOX) was 1.42E-07. The “DU-145 TGI” value (DU-145; DU-145) was 5.22E-08, the GI50 (DU-145; Homo sapiens, DU-145, 48 h, DU-145, read-out: DU-145 GI50) was 0.0135 µM and the CC50 (DU-145; Homo sapiens, DU-145, 48 h, read-out: DU-145 LC50, DU-145) was 0.18 µM. The GI50 (LNCaP; Homo sapiens, LNCaP, 48 h, read-out: LNCAP GI50, LNCAP) was 0.00473 µM, the CC50 (LNCaP; Homo sapiens, LNCaP, 48 h, read-out: LNCAP LC50, LNCAP) was 0.0405 µM and the “LNCAP TGI” value (LNCaP; LNCAP) was 1.12E-08. The GI50 (SK-BR-3; Homo sapiens, SK-BR-3, 48 h, SK-BR3, read-out: SK-BR3 GI50) was 0.0165 µM, the CC50 (SK-BR-3; Homo sapiens, SK-BR-3, 48 h, read-out: SK-BR3 LC50, SK-BR3) was 0.101 µM and the “SK-BR3 TGI” value (SK-BR-3; SK-BR3) was 4.08E-08. For the same compound, the GI50 (IGROV-1; Homo sapiens, IGROV-1, 48 h, IGROV, read-out: IGROV GI50) was 0.0048 µM, the CC50 (IGROV-1; Homo sapiens, IGROV-1, 48 h, read-out: IGROV LC50, IGROV) was 0.0804 µM and the “IGROV TGI” value (IGROV-1; IGROV) was 1.63E-08. For the same compound, the GI50 (IGROV-ET; Homo sapiens, 48 h, IGROV-ET, read-out: IGROV-ET GI50) was 0.0284 µM, the CC50 (IGROV-ET; Homo sapiens, 48 h, read-out: IGROV-ET LC50, IGROV-ET) was 5.84 µM and the “IGROV-ET TGI” value (IGROV-ET; IGROV-ET) was 7.77E-08. The GI50 (SK-OV-3; Homo sapiens, SK-OV-3, 48 h, SK-OV3, read-out: SK-OV3 GI50) was 0.0216 µM, the LC50 (SK-OV-3; Homo sapiens, SK-OV-3, 48 h, read-out: SK-OV3 LC50, SK-OV3) was 8.99 µM and the “SK-OV3 TGI” value (SK-OV-3; SK-OV3) was 6.56E-08. The GI50 (PANC-1; Homo sapiens, PANC-1, 48 h, PANC-1, read-out: PANC-1 GI50) was 0.0253 µM, the LC50 (concentration for 50% net cell kill) (PANC-1; Homo sapiens, PANC-1, 48 h, read-out: PANC-1 LC50, PANC-1) was 0.876 µM and the “PANC-1 TGI” value (PANC-1; PANC-1) was 7.39E-08. The “HMEC-1 TGI” value (HMEC1; HMEC-1) was 9.65E-08, the GI50 (HMEC1; Homo sapiens, HMEC-1, 48 h, HMEC-1, read-out: HMEC-1 GI50) was 0.0167 µM and the LC50 (HMEC1; Homo sapiens, HMEC-1, 48 h, read-out: HMEC-1 LC50, HMEC-1) was 12.7 µM. The “Toxicity Data Liver” value (Liver) was 6.18E-08, the “Toxicity Data Heart” value (Heart) was 3.60E-08 and the “Toxicity Data Myelo” value (Myelo) was 2.44E-07. For the same compound, the “Toxicity Data Skeletal” value (Skeletal) was 2.00E-07 and the “Toxicity Data Kidney” value (Kidney) was 8.09E-08.
